One test deals with T1, 19S RP (Homo sapiens, UniProt P54578+Q9Y5K5).
T1 construct: purchased Boston Biochem E-366
The test can be described thus: De-ubiquitinase activity assay, purified 19S RP with ubiquitin-AMC. Type of test: biochemical. The protocol:
In vitro proteasome activity assays were performed in black 96-well microtiter plates using human 20S proteasome (Boston Biochem) in reaction buffer (25 mM Hepes, 0.5 mM EDTA, 0.03% SDS) with Suc-LLVY-AMC, Z-LLE-AMC or Boc-LRRAMC used as substrates for proteasome activity. De-ubiquitinase activity assays were performed with human 19S RP (Boston Biochem) with ubiquitin-AMC as substrate. For xenograft studies a 100-μl-cell suspension containing 1×10^6 FaDu head-neck or 2×10^5 Lewis Lung Carcinoma (LLC) cells were injected subcutaneously into the flank of SCID or C57BL/6J mice. Upon tumor take mice were randomized into control or treatment groups and administered with 5 mg kg^−1 b-AP15 or vehicle. In vivo levels of apoptosis and cell death were determined from the detection of caspase cleaved and total levels of cytokeratin-18 in plasma using M30 Apoptosense® and M65 ELISA®s assays (Peviva). […]
In vitro proteasome activity assays using 20S CP (2 nM) (Boston Biochem) were performed at 37° C. in 100-μl reaction buffer (25 mM Hepes, 0.5 mM EDTA, 0.03% SDS). […] Fluorescence was monitored using Wallac Multilabel counter or Tecan Infinite M1000 equipped with 360 nm excitation and 460 nm emission filters. […]
Dose response of b-AP15 (FIG. 11a): Purified 19S proteasomes (5 nM) were treated with indicated concentrations of b-AP15, and DUB activity was determined by detection of Ub-AMC cleavage. […]

The next test deals with T2, UCHL1 (Homo sapiens, UniProt P09936).
T2 sequence (P09936 1-223): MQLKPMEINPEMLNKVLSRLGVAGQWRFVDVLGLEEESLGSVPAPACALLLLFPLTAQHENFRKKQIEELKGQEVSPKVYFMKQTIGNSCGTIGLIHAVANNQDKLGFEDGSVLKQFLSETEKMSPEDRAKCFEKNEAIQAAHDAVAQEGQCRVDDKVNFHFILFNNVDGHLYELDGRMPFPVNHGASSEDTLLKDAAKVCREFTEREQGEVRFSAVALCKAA
Nature of the test: HA-UbVS competitive labelling, non-proteasomal DUB. In kind it is binding. From the text:
The deubiquitinating activity of the proteasome is attributed to the action of three DUBs, UCHL5, USP14 and POH1, all localized within the 19S RP 26-28. Both UCHL5 and USP14 are sensitive to N-ethylmaleimide (NEM), a general inhibitor of cysteine proteases, whereas POH1 is insensitive to inhibition by NEM but sensitive to metal chelators such as N,N,N,N-tetrakis-(2-pyridylmethyl)ethylenediamine (TPEN) (29). […] To identify specifically which DUBs were inhibited by b-AP15 treatment, competitive labelling experiments were performed using hemagglutinin tagged ubiquitin vinylsulphonone (HA-UbVS), an active site directed probe that irreversibly reacts with DUBs of the cysteine class (26).
For labelling of DUBs in cell lysates sub confluent cells were harvested by trypsinization, washed three times with PBS, and centrifuged at 1500 RPM for 5 min. Cell pellets were lysed with buffer (50 mM HEPES pH 7.4, 250 mM sucrose, 10 mM MgCl2, 2 mM ATP, 1 mM DTT) on ice for 15 min. Debris was removed by centrifugation and 25 μg of protein was labelled with 1 μM HA-UbVS for 30 min at 37° C. Samples were resolved by SDS-PAGE and analyzed by immunoblotting with indicated antibodies.

Another test deals with HCT-116 cells. The test can be described thus: Cell-cycle analysis, propidium iodide staining and flow cytometry. In kind it is cell-based. How it is done: The turnover of many cell cycle regulatory proteins is controlled by the UPS including inhibitors of the cyclin-dependent kinases p21 Cip1, p27 Kip1 and the tumor suppressor p53 (4). Treatment with b-AP15 increased their levels in a dose dependent manner.
For determination of cell cycle HCT-116 cells were treated with b-AP15 or DMSO Cells were harvested by trypsinisation, washed and fixed in 70% ice cold EtOH for 12 h. Cells were re-suspended in staining solution containing propidium iodide (50 μg/ml) and RNAse A (0.5 μg/ml) in PBS. Samples were run on BD FACScalibur. The percentage of cells in each phase of the cell cycle was determined using ModFit software.
b-AP15 inhibits degradation of ubiquitin-tagged YFP in a proteasome reporter cell line (FIG. 1a). Levels of ^UbG76V-YFP accumulation were determined by flow cytometry and immunoblotting; immunoblot of ubiquitin conjugation in HCT-116 cells treated with b-AP15 (1 μM) or bortezomib (100 nM) (FIG. 1b). Immunoblot of ubiquitin conjugates, caspase 3 activation PARP cleavage, p53. P21^Cip1 and p^Kip1 in HCT-116 cells following 24 h treatment with the indicated concentrations of b-AP15 (FIG. 1c). […]
For orientation: A flow cytometer gives signals particle by particle.

Turning to `C=CC(=O)N1C/C(=C\c2ccc([N+](=O)[O-])cc2)C(=O)/C(=C/c2ccc([N+](=O)[O-])cc2)C1` [b-AP15], the “effect of reduced glutathione on inhibition of 19S DUB activity” value at 19S RP (b-AP15 10 μM mixed with GSH 2 mM, 19S 5 nM) was “did not reduce b-AP15 mediated inhibition”. Also, the “reversibility of inhibition of 19S DUB activity” value at 19S RP (recovery of activity after 50-fold rapid dilution of enzyme/b-AP15 complex) is “reversible inhibitor”. In addition, the “activity of non-proteasomal DUB UCHL1” value on UCHL1 is “without affecting the activity”. Besides, in the test with HCT-116 cells, the cell cycle effect result is recorded as “cell cycle arrest in the G2/M phase boundary”.

(Values after patent US9856511B2, “Protease deubiquitinating inhibitor screening” (priority 2011, dated 2018).)
